ChEMBL document CHEMBL1201862, “PubChem BioAssay data set” (2004)
The source made the active and inactive calls.

How the values were obtained:
[1] = molecular target: T1, Hexokinase (Trypanosoma brucei, UniProt Q38C41); assay: Confirmation assay for inhibitors of Trypanosoma brucei hexokinase 1-Analogue-first series. [Related pubchem assays (depositor defined):AID1430, AID1632, AID2516, AID2560, AID2579, AID2600, AID449725, AID492951]; assay type: functional
T1 sequence (Q38C41 whole entry): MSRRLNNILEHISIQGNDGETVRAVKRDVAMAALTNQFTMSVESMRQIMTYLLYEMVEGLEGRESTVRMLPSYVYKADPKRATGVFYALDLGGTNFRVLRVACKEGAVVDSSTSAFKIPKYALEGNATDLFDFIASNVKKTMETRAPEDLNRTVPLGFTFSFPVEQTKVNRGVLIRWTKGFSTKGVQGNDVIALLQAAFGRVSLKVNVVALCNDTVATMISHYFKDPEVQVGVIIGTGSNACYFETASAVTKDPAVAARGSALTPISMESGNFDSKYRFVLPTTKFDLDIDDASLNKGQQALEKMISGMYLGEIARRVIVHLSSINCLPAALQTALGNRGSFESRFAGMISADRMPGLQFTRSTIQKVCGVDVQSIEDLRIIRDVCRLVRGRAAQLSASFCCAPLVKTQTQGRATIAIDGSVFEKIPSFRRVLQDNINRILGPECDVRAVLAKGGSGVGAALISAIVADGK

[2] = molecular target: T2, Bcl-2-related protein A1 (Mus musculus, UniProt Q07440); assay type: functional;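 note: confirmatory dose–response counterscreen on Bfl-1, used to check hits from a UBC13 polyubiquitin inhibitor campaign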
T2 sequence (Q07440 whole entry): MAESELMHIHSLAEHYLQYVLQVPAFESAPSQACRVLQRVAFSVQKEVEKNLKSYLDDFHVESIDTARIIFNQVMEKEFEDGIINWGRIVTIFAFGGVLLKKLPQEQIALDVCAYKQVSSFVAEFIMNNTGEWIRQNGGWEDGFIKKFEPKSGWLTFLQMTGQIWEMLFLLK

[3] = molecular target: T3, Ubiquitin-conjugating enzyme E2 N (Homo sapiens, UniProt P61088); assay type: functional
T3 sequence (P61088 whole entry): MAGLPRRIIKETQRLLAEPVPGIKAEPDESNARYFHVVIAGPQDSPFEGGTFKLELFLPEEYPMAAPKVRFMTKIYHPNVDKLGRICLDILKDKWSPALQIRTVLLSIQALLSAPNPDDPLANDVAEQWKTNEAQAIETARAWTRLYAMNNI

[4] = molecular target: T3, Ubiquitin-conjugating enzyme E2 N; assay type: functional; remark: listed apart in the source
[5] = molecular target: G-protein coupled receptor 55 (Homo sapiens, UniProt Q9Y2T6); assay: selective activators of receptor GPR55 – imaging, U2OS cells, beta-arrestin-GFP redistribution, primary screen (AID 1961); assay type: functional
[6] = molecular target: DNA dC->dU-editing enzyme APOBEC-3A (Homo sapiens, UniProt P31941); assay: A3A deaminase inhibition for selectivity – biochemical, dose response (AID 504722); assay type: functional
[7] = molecular target: DNA dC->dU-editing enzyme APOBEC-3G (Homo sapiens, UniProt Q9HC16); assay: Dose Response confirmation of small molecule APOBEC3G DNA Deaminase Inhibitors via a fluorescence-based single-stranded DNA deaminase assay. [Related pubchem assays (depositor defined):AID493012, AID493028]; assay type: functional
[8] = molecular target: T4, CAAX prenyl protease 2 (Saccharomyces cerevisiae S288c, UniProt Q03530); assay type: biochemical
T4 sequence (Q03530 whole entry): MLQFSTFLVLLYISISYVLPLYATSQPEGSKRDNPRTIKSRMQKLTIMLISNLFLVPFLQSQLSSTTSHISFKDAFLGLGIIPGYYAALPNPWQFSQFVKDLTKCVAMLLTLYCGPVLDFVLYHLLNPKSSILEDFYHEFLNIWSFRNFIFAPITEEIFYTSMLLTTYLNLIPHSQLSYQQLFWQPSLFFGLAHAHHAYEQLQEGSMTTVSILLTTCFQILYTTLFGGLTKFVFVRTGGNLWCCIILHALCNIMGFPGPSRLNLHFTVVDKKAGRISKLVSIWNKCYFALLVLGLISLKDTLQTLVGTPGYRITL

[9] = molecular target: Eukaryotic translation initiation factor 4E (Mus musculus, UniProt P63073); assay: blockers of eIF4G binding by eIF4E – biochemical, TR-FRET, dose response (AID 855); assay type: functional;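 note: potency for disrupting eIF4E binding to eIF4GI seen as loss of FRET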
[10] = molecular target: T5, Sphingosine 1-phosphate receptor 4 (Homo sapiens, UniProt O95977); assay: Late-stage fluorescence dose response cell-based assay to identify agonists of the Sphingosine 1-Phosphate Receptor 4 (S1P4): purchased compounds EC50. [Related pubchem assays (depositor defined):AID1509, AID1523, AID1563, AID1686, AID1701, AID1801]; assay type: functional
T5 sequence (O95977 whole entry): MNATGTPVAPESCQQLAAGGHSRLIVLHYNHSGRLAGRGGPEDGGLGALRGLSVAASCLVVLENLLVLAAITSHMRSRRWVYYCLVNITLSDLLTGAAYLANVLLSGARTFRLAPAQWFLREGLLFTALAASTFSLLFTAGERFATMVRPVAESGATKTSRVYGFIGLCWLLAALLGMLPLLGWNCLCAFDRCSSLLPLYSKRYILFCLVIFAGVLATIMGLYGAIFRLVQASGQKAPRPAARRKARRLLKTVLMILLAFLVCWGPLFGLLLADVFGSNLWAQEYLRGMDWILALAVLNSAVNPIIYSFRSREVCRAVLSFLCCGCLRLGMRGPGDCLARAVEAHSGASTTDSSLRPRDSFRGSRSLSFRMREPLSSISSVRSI

[11] = molecular target: Glyceraldehyde-3-phosphate dehydrogenase (Homo sapiens, UniProt P04406)
[12] = molecular target: Alkaline phosphatase, placental type (Homo sapiens, UniProt P05187); assay: human placental alkaline phosphatase inhibition – biochemical, luminescence, confirmation (AID 1512); assay type: functional
[13] = molecular target: T6, Alkaline phosphatase, tissue-nonspecific isozyme (Homo sapiens, UniProt P05186); assay: potency against alkaline phosphatase TNAP – biochemical, luminescent, dose response, SAR follow-up (AID 1056)
T6 sequence (P05186 whole entry): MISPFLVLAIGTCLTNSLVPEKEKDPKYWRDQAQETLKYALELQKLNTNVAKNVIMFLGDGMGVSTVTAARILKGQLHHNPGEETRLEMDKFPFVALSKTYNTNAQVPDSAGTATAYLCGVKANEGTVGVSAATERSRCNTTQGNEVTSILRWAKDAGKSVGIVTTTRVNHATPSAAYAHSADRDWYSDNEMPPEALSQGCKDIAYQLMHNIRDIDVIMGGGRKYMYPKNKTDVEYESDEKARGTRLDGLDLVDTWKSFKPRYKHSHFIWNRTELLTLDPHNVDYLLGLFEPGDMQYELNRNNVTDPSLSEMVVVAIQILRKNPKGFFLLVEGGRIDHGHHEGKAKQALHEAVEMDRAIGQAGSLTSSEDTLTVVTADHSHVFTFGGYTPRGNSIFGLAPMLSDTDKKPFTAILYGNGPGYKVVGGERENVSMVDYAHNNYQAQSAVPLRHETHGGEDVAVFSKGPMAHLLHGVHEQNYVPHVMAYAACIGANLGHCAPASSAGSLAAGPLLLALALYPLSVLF

[14] = molecular target: Estrogen receptor beta (Homo sapiens, UniProt Q92731); assay: blockers of SRC-3 recruitment to ERβ – biochemical, ELISA, streptavidin-HRP readout, orthogonal assay, confirmation (AID 1060)
[15] = molecular target: Induced myeloid leukemia cell differentiation protein Mcl-1 (Homo sapiens, UniProt Q07820); assay type: functional
[16] = cells
[17] = Luminescence Cell-Based Dose Confirmation HTS to Identify Activators of 5'UTR Stem-Loop Driven Alpha-Synuclein mRNA Translation in H4 Neuroglioblastoma Cells. [Related pubchem assays: 1829 (Project Summary), 1814 (Primary HTS)]; assay type: functional
[18] = Luminescence Cell-Based Dose Response HTS to Identify Activators of Luciferase Translation or Activity in H4 […] Cells. [Related pubchem assays: 1829 (Project Summary), 1814 (Primary HTS)]; assay type: functional
[19] = tested on: H4; assay: Luminescence Cell-Based Dose Response HTS to Identify Activators of 5'UTR Stem-Loop Driven Prion Protein mRNA Translation in H4 Neuroglioblastoma Cells. [Related pubchem assays: 1829 (Project Summary), 1814 (Primary HTS)]; assay type: functional; details: Homo sapiens
[20] = molecular target: Intestinal-type alkaline phosphatase (Homo sapiens, UniProt P09923); assay: human intestinal alkaline phosphatase activators, dose response, biochemical, luminescence, uHTS hits (AID 463120); assay type: functional
[21] = molecular target: E3 ubiquitin-protein ligase XIAP (Homo sapiens, UniProt P98170); assay: Counter Screen using XIAP-Bir3 for Chemical Antagonists of Bir1/2 domains of IAP-family anti-apoptotic proteins. [Related pubchem assays (depositor defined):AID1018, AID1449, AID1514, AID1638, AID1749, AID1750, AID488957, AID488963]
[22] = molecular target: T7, Polyadenylate-binding protein 1 (Homo sapiens, UniProt P11940); assay: MLLE binding blockers, Cy5 peptide tracer – biochemical, fluorescence polarization, Cy5-PAM2 peptide, secondary, miRNA deadenylation inhibitor project, dose response (AID 602260); assay type: functional; details: read-out: IC50_Mean
[23] = molecular target: T7, Polyadenylate-binding protein 1; assay: MLLE domain peptide-binding blockers, IC50 – biochemical, fluorescence polarization, FITC-PAM2 peptide, dose response (AID 602259); assay type: functional; details: read-out: IC50_Mean
[24] = microbe, parasite or virus in culture; assay type: functional; details: Mycobacterium tuberculosis
[25] = THP-1 cell cytotoxicity, dose response, cytotoxicity control for non-replicating M. tuberculosis project (AID 489025); assay type: functional
[26] = Vero E6 cell cytotoxicity, dose response, cytotoxicity control for non-replicating M. tuberculosis project, secondary assay (AID 492998); assay type: functional, VeroE6; details: Vero C1008
[27] = cells; assay type: functional

Sequence of Alkaline phosphatase, placental type (P05187 whole entry): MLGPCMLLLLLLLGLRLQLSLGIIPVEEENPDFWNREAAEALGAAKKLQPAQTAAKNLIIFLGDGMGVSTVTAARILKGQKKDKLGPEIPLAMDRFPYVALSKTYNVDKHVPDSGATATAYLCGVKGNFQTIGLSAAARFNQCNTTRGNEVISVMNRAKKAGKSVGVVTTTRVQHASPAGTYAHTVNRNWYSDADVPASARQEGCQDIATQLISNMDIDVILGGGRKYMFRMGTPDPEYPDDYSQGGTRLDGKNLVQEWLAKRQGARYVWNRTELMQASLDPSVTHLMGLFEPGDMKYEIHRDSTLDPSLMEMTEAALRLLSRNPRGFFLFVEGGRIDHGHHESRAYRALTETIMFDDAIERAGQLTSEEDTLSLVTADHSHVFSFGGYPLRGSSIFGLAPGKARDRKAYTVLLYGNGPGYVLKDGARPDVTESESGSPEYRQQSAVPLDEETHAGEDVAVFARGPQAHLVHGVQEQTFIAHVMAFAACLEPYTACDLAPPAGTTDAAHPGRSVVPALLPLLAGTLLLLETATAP
Sequence of Glyceraldehyde-3-phosphate dehydrogenase (P04406 whole entry): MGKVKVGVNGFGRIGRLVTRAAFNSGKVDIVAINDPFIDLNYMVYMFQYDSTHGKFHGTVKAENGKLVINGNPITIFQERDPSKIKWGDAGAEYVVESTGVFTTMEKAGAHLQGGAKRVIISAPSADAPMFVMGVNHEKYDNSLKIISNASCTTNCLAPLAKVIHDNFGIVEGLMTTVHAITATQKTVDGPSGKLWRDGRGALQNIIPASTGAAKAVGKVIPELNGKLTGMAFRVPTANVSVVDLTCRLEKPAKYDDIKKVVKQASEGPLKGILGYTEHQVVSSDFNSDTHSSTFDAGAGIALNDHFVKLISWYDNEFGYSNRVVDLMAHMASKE
Sequence of DNA dC->dU-editing enzyme APOBEC-3A (P31941 whole entry): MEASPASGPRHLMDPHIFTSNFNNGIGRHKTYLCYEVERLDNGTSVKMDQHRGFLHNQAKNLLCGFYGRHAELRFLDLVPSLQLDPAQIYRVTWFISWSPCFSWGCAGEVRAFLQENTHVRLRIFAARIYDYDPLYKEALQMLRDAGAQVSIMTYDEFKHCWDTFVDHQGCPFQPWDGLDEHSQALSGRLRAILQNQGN
Sequence of DNA dC->dU-editing enzyme APOBEC-3G (Q9HC16 whole entry): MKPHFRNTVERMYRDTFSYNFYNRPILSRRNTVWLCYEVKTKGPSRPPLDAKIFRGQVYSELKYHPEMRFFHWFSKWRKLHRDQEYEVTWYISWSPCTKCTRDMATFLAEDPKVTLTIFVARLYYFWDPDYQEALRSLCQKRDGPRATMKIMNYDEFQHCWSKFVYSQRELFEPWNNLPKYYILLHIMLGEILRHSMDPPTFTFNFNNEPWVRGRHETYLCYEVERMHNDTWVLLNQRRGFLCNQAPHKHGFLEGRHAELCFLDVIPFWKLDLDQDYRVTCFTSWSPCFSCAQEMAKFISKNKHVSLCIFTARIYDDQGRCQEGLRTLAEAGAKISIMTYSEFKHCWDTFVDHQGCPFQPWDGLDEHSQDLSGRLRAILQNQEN
T7 sequence (P11940 whole entry, the tested form may be a part): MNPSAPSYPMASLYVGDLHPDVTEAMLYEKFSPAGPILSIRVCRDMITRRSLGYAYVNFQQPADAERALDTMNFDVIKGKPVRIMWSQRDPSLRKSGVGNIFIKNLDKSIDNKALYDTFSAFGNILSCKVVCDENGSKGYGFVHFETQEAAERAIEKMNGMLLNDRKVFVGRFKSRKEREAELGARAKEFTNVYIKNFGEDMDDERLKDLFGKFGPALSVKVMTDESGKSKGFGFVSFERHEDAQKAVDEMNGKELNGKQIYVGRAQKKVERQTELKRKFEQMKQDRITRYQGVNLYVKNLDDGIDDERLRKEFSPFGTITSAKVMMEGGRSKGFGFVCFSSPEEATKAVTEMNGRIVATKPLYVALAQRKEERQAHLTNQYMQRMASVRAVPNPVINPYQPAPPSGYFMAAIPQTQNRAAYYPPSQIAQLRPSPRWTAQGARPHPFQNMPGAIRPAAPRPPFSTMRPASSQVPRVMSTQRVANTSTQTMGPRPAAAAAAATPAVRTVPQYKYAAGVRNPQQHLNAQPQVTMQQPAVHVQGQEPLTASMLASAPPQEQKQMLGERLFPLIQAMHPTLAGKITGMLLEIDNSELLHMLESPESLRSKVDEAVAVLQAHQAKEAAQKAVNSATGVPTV
Sequence of G-protein coupled receptor 55 (Q9Y2T6 whole entry): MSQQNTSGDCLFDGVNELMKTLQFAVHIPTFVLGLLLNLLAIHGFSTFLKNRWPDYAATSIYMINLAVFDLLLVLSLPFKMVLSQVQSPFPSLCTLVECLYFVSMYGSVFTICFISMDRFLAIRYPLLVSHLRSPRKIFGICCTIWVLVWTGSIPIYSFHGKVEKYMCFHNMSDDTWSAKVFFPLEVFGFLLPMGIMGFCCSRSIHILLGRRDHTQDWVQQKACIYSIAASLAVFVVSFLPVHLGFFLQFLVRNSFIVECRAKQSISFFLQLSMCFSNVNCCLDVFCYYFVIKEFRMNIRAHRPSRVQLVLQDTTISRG
Sequence of Induced myeloid leukemia cell differentiation protein Mcl-1 (Q07820 whole entry): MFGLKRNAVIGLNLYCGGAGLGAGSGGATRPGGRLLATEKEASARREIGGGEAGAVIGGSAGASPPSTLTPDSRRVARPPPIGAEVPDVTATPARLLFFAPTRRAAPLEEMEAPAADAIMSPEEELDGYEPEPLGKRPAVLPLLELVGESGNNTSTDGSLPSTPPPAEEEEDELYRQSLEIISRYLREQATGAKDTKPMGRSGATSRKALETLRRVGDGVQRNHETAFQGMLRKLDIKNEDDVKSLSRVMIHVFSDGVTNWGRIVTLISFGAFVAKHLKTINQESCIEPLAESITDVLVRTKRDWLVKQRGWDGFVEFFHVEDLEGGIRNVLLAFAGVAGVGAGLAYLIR
Sequence of Eukaryotic translation initiation factor 4E (P63073 whole entry): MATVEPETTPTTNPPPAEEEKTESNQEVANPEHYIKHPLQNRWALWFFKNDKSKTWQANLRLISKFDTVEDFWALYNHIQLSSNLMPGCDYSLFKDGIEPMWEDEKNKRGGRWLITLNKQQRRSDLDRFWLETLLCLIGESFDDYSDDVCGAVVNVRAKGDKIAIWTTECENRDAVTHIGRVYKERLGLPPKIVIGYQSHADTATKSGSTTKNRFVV
Sequence of Estrogen receptor beta (Q92731 whole entry): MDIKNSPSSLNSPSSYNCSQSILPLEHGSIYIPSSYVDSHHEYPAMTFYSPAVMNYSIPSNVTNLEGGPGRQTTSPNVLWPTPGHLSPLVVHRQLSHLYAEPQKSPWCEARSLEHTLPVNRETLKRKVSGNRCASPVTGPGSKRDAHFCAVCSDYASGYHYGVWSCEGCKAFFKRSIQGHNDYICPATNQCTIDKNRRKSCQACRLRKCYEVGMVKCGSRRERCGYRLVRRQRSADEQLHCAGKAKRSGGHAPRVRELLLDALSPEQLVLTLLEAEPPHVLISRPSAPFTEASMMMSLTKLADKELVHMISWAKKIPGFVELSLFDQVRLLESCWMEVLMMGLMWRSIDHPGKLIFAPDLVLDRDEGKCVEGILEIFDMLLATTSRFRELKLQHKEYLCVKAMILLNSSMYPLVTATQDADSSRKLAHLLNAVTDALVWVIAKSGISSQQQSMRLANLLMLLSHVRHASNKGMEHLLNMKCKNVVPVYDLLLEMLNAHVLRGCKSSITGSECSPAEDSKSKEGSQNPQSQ
Sequence of Intestinal-type alkaline phosphatase (P09923 whole entry): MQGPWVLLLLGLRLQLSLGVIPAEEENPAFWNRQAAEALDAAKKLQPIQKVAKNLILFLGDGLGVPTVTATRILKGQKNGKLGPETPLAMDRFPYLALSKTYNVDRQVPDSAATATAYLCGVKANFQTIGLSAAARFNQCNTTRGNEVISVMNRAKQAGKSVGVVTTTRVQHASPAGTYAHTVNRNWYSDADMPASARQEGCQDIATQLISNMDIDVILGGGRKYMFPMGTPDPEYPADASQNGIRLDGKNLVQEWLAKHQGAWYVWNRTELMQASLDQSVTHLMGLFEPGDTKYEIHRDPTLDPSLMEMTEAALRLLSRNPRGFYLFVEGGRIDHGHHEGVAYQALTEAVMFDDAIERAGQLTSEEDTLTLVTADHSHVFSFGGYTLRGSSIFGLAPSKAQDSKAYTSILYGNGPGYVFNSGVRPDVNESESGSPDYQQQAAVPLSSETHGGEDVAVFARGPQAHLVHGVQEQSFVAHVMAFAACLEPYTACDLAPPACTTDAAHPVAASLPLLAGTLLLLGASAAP
Sequence of E3 ubiquitin-protein ligase XIAP (P98170 whole entry): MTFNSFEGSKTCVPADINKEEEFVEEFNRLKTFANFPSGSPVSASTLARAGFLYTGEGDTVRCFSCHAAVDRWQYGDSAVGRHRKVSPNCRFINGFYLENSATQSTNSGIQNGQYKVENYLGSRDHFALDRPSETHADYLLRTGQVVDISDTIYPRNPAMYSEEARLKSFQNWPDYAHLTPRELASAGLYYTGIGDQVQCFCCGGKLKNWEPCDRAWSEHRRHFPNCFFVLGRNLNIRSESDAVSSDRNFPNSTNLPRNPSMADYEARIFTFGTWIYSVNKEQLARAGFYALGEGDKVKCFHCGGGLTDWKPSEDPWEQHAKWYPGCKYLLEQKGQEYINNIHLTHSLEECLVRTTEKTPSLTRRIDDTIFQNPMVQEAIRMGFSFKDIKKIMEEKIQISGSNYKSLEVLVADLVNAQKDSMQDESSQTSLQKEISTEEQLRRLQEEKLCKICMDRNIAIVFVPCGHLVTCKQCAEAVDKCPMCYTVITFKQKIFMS

SMILES: COc1ccc(C(=O)Nc2cc(C(=O)O)ccc2Cl)cc1
- IC50 [1]: > 25 µM (inactive)

SMILES: O=C(NNC(=O)c1nn(-c2ccc(F)cc2)ccc1=O)c1ccc(Cl)cc1
- IC50 [2]: > 20 µM (inactive)
- IC50 [3]: 18.9 µM (active)
- IC50 [4]: 19.8 µM (active)

SMILES: COc1ccccc1CC(=O)Nc1ccc2c(c1)C(=O)NC2=O
- EC50 [5]: 14.9 µM (inactive)

SMILES: CC(C)CSc1nnc(S)s1
- IC50 [6]: > 100 µM (inactive)
- IC50 [7]: 3.32 µM (active)

SMILES: C#CCOCCOCCOCCNc1nc(N2CCN(C(=O)[C@H](CCCN=C(N)N)n3cc(C(N)[C@@H](C)CC)nn3)CC2)nc(N2CCN(C(=O)[C@H](CCCCN)n3cc([C@@H](N)[C@H](C)CC)nn3)CC2)n1 (stereo partly drawn)
- IC50 [2]: > 20 µM (inactive)
- IC50 [3]: 15.2 µM (active)
- IC50 [4]: 18.4 µM (active)

SMILES: CCOC(=O)C1CCCN(C(=O)CCn2nnnc2CN2CCOCC2)C1 (stereo not drawn)
- AC50 [8]: 27.9 µM (active)

SMILES: COc1ccc(C(=O)NC(CC(=O)O)c2ccc(Cl)cc2)cc1 (stereo not drawn)
- IC50 [1]: > 25 µM (inactive)

SMILES: O=c1c2ccccc2cnn1Cc1nnc(S)n1-c1ccc(Cl)cc1
- IC50 [6]: > 100 µM (inactive)
- IC50 [7]: 5.01 µM (active)

SMILES: O=C1C2C3C=CC(C3)C2C(=O)N1CCCCN1C(=O)C2C3C=CC(C3)C2C1=O (stereo not drawn)
- IC50 [9]: > 64 µM (inactive)

SMILES: Cc1ccc(OCC(=O)N(C)CCOc2ccc(Cl)cc2)c([N+](=O)[O-])n1
- EC50 [10]: > 50 µM (inactive)

SMILES: COc1ccccc1-c1nnc(SCC(=O)Nc2ccccc2[N+](=O)[O-])[nH]1
- IC50 [11]: > 100 µM (not active)
- IC50 [12]: > 100 µM (inactive)
- IC50 [13]: 13.3 µM (active)

SMILES: Cc1ccc(OCc2c(Cl)cccc2Cl)c([N+](=O)[O-])n1
- EC50 [10]: > 50 µM (inactive)

SMILES: Nc1c(C(=O)NCc2ccco2)sc2nc3c(cc12)C(=O)CCC3
- IC50 [14]: 6.25 µM (not active)
- IC50 [15]: 3.38 µM (active)
- IC50 [9]: > 64 µM (inactive)

SMILES: COc1ccc(-c2[nH]nc(-c3ccccc3)c2-c2nc3ccccc3[nH]2)cc1
- IC50 [11]: 81.2 µM (active)
- IC50 [12]: > 100 µM (inactive)
- IC50 [13]: > 100 µM (inactive)

SMILES: CC(=O)N1CCN(C2=NC(=O)/C(=C/c3ccc(OS(=O)(=O)c4ccccc4)cc3)S2)CC1
- IC50 [16]: 37.9 µM (active)

SMILES: CCCCNC(=O)CC1N=C2c3ccccc3N=C(SCC(=O)Nc3ccc(OC)cc3)N2C1=O (stereo not drawn)
- IC50 [16]: 37 µM (active)

SMILES: Cc1ccc(S(=O)(=O)Nc2nc3ccccc3nc2NCc2ccco2)cc1
- EC50 [17]: 8.02 µM (active)
- EC50 [18]: 10.8 µM (active)
- EC50 [19]: 7.32 µM (active)
- EC50 [20]: > 100 µM (inactive)

SMILES: Cc1ccc(OCc2cccc(COc3ccc(C)nc3[N+](=O)[O-])c2)c([N+](=O)[O-])n1
- EC50 [10]: > 50 µM (inactive)

SMILES: COc1cc(NS(=O)(=O)c2ccc(NC(=S)NC(=O)/C=C/c3ccc(F)cc3)cc2)ncn1
- IC50 [21]: > 20 µM (inactive)
- IC50 [22]: > 66 µM (inactive)
- IC50 [23]: > 66 µM (inactive)

SMILES: Cn1ncc2c1ncn1c(-c3ccccc3)nnc21
- IC50 [11]: > 100 µM (not active)
- IC50 [12]: > 100 µM (inactive)
- IC50 [13]: > 100 µM (inactive)

SMILES: Cc1[nH]c2ccccc2c1/C=N/Nc1ccc([N+](=O)[O-])cc1
- IC50 [15]: < 0.4 µM (active)
- IC50 [16]: 27 µM (active)

SMILES: Cc1nc(-c2ccccc2)sc1-c1n[nH]c(=S)n1C
- IC50 [6]: > 100 µM (inactive)
- IC50 [7]: 4.9 µM (active)

SMILES: CNC(C)C#Cc1ccc2oc3cc(C)c(C)cc3c(=O)c2c1 (stereo not drawn)
- CC50 [24]: 29 µM (active)
- CC50 [25]: 22.2 µM (active)
- CC50 [26]: > 20 µM (active)
- IC50 [27]: 11.8 µM (active)

SMILES: Nc1ccc(Oc2ccc3nc(-c4ccccc4)c(-c4ccccc4)nc3c2)cc1
- EC50 [5]: 1.91 µM (active)
